According to patent publication US20220235030A1, “SELECTIVE HISTAMINE H3 ANTAGONIST ACID ADDITION SALTS AND PROCESS FOR THE PREPARATION THEREOF” (RICHTER GEDEON NYRT., priority 2019, published 2022):
Counter-ions that a name gives are not always drawn.

Assay: Dynamic vapor sorption (DVS) analysis at 25° C., hygroscopicity and deliquescence
Type: physicochemical
Set-up: Δm/ΔRH: unit not given beside the values
Settings: for Critical Relative Humidity (CRH) / relative humidity above which high, continuous weight gain (deliquescence) is observed: DVS at 25° C.; for Critical Relative Humidity (CRH): RH1 of first sorption step with Δm/ΔRH≥0.5; for Δm/ΔRH / relative humidity above which high, continuous weight gain (deliquescence) is observed: sorption; for Δm/ΔRH / relative weight change: 25° C.; for relative weight change: 95% RH
Experimental: Determination of the critical relative humidity is feasible by gravimetric method, e.g. with DVS, where relative humidity is changed in suitably selected steps and a sufficiently long time is used to the onset of quasi-equilibrium.
The deliquescence tendency of each salt is characterized by the critical relative humidity (CRH) value (Table 1), which was determined based on the sorption curves measured according to the measurement parameter settings below, with DVS analysis at 25° C. isotherm conditions, according to the following. […]
If the given sorption step is Δm/ΔRH≥0.5, then RH1 is considered to be the critical relative humidity (CRH) value indicating the end point of the physical stability of the substance. The value thus determined is a good match with the onset of a significant monotonic weight gain observed visually on the sorption curve. Above the critical relative humidity value, it is the process of deliquescence of the substance that determines the weight gain observed on the sorption curve.

[1] = listed as monohydrochloride Form A
[2] = listed as monohydrochloride Form B

CC(=O)N1CCC(Oc2ccc(OCCCN3CCC[C@H]3C)cc2)CC1 [diHBr, 1-[4-(4-{3-[(2R)-2-methyl-pyrrolidin-1-yl]-propoxy}-phenoxy)-piperidin-1-yl]-ethanone dihydrobromide salt]
Critical Relative Humidity (CRH) (dihydrobromide salt): 70%
Δm/ΔRH (RH1 0%, dihydrobromide salt): 0.0
Δm/ΔRH (RH1 10%, dihydrobromide salt): 0.0
Δm/ΔRH (RH1 20%, dihydrobromide salt): 0.0
Δm/ΔRH (RH1 30%, dihydrobromide salt): 0.0
Δm/ΔRH (RH1 40%, dihydrobromide salt): 0.1
Δm/ΔRH (RH1 50%, dihydrobromide salt): 0.1
Δm/ΔRH (RH1 60%, dihydrobromide salt): 0.3
Δm/ΔRH (RH1 70%, dihydrobromide salt): 3.1
Δm/ΔRH (RH1 80%, dihydrobromide salt): 3.3
relative weight change (sorption curve, dihydrobromide salt): 90%
moisture absorbed (sorption curve, up to 70% RH): about 6%

CC(=O)N1CCC(Oc2ccc(OCCCN3CCC[C@H]3C)cc2)CC1 [monoHCl Form A, 1-[4-(4-{3-[(2R)-2-methyl-pyrrolidin-1-yl]-propoxy}-phenoxy)-piperidin-1-yl]-ethanone monohydrochloride salt Form A]
Critical Relative Humidity (CRH): 40%
Δm/ΔRH (RH1 0%): 0.0
Δm/ΔRH (RH1 10%): 0.0
Δm/ΔRH (RH1 20%): 0.0
Δm/ΔRH (RH1 30%): 0.3
Δm/ΔRH (RH1 40%): 1.1
Δm/ΔRH (RH1 50%): 0.5
Δm/ΔRH (RH1 60%): 0.6
Δm/ΔRH (RH1 70%): 1.1
Δm/ΔRH (RH1 80%): 2.6
hygroscopicity (in words) [1]: highly hygroscopic
relative weight change (sorption curve): 97%
water bound (sorption curve, up to 40% RH): about 3%
relative humidity above which high, continuous weight gain (deliquescence) is observed [1]: above 40%

CC(=O)N1CCC(Oc2ccc(OCCCN3CCC[C@H]3C)cc2)CC1 [monoHCl Form B, 1-[4-(4-{3-[(2R)-2-methyl-pyrrolidin-1-yl]-propoxy}-phenoxy)-piperidin-1-yl]-ethanone monohydrochloride salt Form B]
Critical Relative Humidity (CRH): 30%
Δm/ΔRH (RH1 0%): 0.0
Δm/ΔRH (RH1 10%): 0.0
Δm/ΔRH (RH1 20%): 0.0
Δm/ΔRH (RH1 30%): 0.6
Δm/ΔRH (RH1 40%): 0.7
Δm/ΔRH (RH1 50%): 0.4
Δm/ΔRH (RH1 60%): 0.6
Δm/ΔRH (RH1 70%): 0.9
Δm/ΔRH (RH1 80%): 1.5
hygroscopicity (in words) [2]: highly hygroscopic
relative weight change (sorption curve): 61%
water bound (sorption curve, up to 30% RH): 0.3%
relative humidity above which high, continuous weight gain (deliquescence) is observed [2]: above 30%

CC(=O)N1CCC(Oc2ccc(OCCCN3CCC[C@H]3C)cc2)CC1 [oxalate, 1-[4-(4-{3-[(2R)-2-methyl-pyrrolidin-1-yl]-propoxy}-phenoxy)-piperidin-1-yl]-ethanone oxalate salt]
Critical Relative Humidity (CRH) (oxalate salt): not deliquescent
Δm/ΔRH (RH1 0%, oxalate salt): 0.0
Δm/ΔRH (RH1 10%, oxalate salt): 0.1
Δm/ΔRH (RH1 20%, oxalate salt): 0.1
Δm/ΔRH (RH1 30%, oxalate salt): 0.2
Δm/ΔRH (RH1 40%, oxalate salt): 0.1
Δm/ΔRH (RH1 50%, oxalate salt): 0.0
Δm/ΔRH (RH1 60%, oxalate salt): 0.0
Δm/ΔRH (RH1 70%, oxalate salt): 0.0
Δm/ΔRH (RH1 80%, oxalate salt): 0.1
deliquescence (in words) (above 90% RH, DVS 25° C., oxalate salt): does not even show deliquescence
relative weight gain relative to the dried weight (sorption curve, 10-50% RH range, constant up to approx. 70% RH): about 4.7%
deliquescence (in words) (under the conditions of the DVS analysis, oxalate salt): not deliquescent

CC(=O)N1CCC(Oc2ccc(OCCCN3CCC[C@H]3C)cc2)CC1 [sulfate, 1-[4-(4-{3-[(2R)-2-methyl-pyrrolidin-1-yl]-propoxy}-phenoxy)-piperidin-1-yl]-ethanone sulfate salt]
Critical Relative Humidity (CRH) (sulfate salt): 80%
Δm/ΔRH (RH1 0%, sulfate salt): 0.4
Δm/ΔRH (RH1 10%, sulfate salt): 0.0
Δm/ΔRH (RH1 20%, sulfate salt): 0.0
Δm/ΔRH (RH1 30%, sulfate salt): 0.0
Δm/ΔRH (RH1 40%, sulfate salt): 0.0
Δm/ΔRH (RH1 50%, sulfate salt): 0.0
Δm/ΔRH (RH1 60%, sulfate salt): 0.0
Δm/ΔRH (RH1 70%, sulfate salt): 0.1
Δm/ΔRH (RH1 80%, sulfate salt): 1.6
relative weight change (sorption curve, sulfate salt): 53%
water bound (sorption curve, up to 80% RH, sulfate salt): about 5%
